Values of other authors, collected in US20170196789A1, “REDUCTION OF ORAL AND EPIDERMAL MALODOR IN HUMANS AND ANIMALS” (priority 2014, published 2017).

Columns and labels:
[1] = chlorhexidine exposure, current animal research
[2] = after adhesion to the mucus membrane surface
[3] = in vivo

[H]/N=C(\N/C(=N/[H])NCCCCCCNC(=N)NC(=N)Nc1ccc(Cl)cc1)Nc1ccc(Cl)cc1 [chlorhexidine, Chlorhexidine]
toxic and/or cancerous effects in animals [1]: does not demonstrate any evidence of toxic and/or cancerous effects | share of the total consumed amount remaining in the oral cavity [2]: Approximately thirty | absorption through the digestive system [3]: minimal
